# Laboratory results as given in paper PMC7529893, “Structural basis for substrate recognition and chemical inhibition of oncogenic MAGE ubiquitin ligases” (Nature Communications, 2020).
# Target: T1, MAGE-A11:PCF11 interaction (GST-MAGE-A11 MHD and FAM-PCF11_4) (Homo sapiens, UniProt P43364)
# T1 construct: GST-MAGE-A11 MHD (human MAGE-A11 MHD amino acid 218-429); made in house; host or cells: E. coli BL21(DE3)
# T1 sequence (P43364 218-429): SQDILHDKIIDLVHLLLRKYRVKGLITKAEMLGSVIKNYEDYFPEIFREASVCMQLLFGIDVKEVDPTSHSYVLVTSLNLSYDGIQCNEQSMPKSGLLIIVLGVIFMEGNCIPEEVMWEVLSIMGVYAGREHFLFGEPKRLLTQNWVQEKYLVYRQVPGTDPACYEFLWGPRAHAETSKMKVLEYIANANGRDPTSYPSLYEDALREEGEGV
# Experiment: TR-FRET dose response test of compounds for disruption of MAGE-A11:PCF11 binding
# Conditions: Dose response TR-FRET screening of nine scaffold groups against MAGE-A11:PCF11; read-out: consensus IC50
# Method: The TR-FRET assay buffer with a formula of 50 mM Tris pH 7.5, 20 mM MgCl2, 0.1 mg/ml BSA and 1 mM DTT was freshly prepared before each experiment. All TR-FRET assays were performed in black 384-well plates with 20 µl/well assay volume in the TR-FRET assay buffer at room temperature (~25 °C). All peptides or compounds were solubilized in DMSO. To test the competitive activity of peptides or compounds against the interaction between GST-MAGE-A11 MHD and FAM-PCF11_4 peptide, 10 µl/well peptide or compound at specified concentration was dispensed into a black 384-well low volume plate, followed by 5 µl/well FAM-PCF11_4 (800 nM), 5 µl/well Tb-anti-GST (20 nM), and GST-MAGE-A11 MHD (20 nM). The assay components in each well was then mixed by shaking the plate on an IKA MTS 2/4 digital microtiter plate shaker (IKA Works; Wilmington, NC, USA) for 1 min. The plate was further centrifuged in an Eppendorf 5810 centrifuge with an A-4-62 swing-bucket rotor (Eppendorf AG, Hamburg, Germany) at 201 g for 30 s. The plate was then incubated for 90 min with a lid to avoid light exposure to the assay components. After incubation, the fluorescent emission signals at 520 nm and 490 nm channels of individual wells were measured with a PHERAstar FS plate reader (BMG Labtech; Durham, NC, USA) by using a 340 nm excitation filter, 100 µs delay time, and 200 µs integration time. The TR-FRET fluorescence emission ratio (TR-FRET signal) for each well was presented as 10,000 × 520 nm/490 nm, which was used directly for curve fitting, or further converted to %Inhibition based on the respective positive and negative controls. The graphic software GraphPad Prism 4.81 (GraphPad Software; La Jolla, CA, USA) was used to generate curves and derive IC50 values of tested peptides or compounds, if applicable.
# TR-FRET screen for identifying MAGE-A11 small molecule inhibitors was performed as follows. The primary one-concentration screening and subsequent 10 or 20-concentration dose-response tests were accomplished with an automated High Throughput Screening system (HighRes Biosolutions, Beverly, MA)[30]. In the primary screening, 15 µl/well FAM-PCF11_4 (267 nM) was first dispensed with a Multidrop Combi Reagent Dispenser (Thermo Fisher Scientific, Waltham, MA) to black 384-well low-volume assay plates. The plates were spun down with a Velocity11 VSpin microplate centrifuge (Agilent Technologies, Santa Clara, CA). In total, 30 nl/well of 10 mM compound/DMSO solutions, or DMSO alone, were transferred from compound plates (the St. Jude FDA drug and bioactive library, Drug-like library and Lead-like library) or a control plate to the assay plates with a Pin Tool (V&P Scientific, San Diego, CA). The compounds were arrayed in columns 3–12 and columns 15–24 of compound plates. The controls were arrayed in columns 1, 2, 13, and 14 of a compound plate. In all, 5 µl/well Tb-anti-GST (20 nM) and GST-MAGE-A11 (20 nM) or 5 µl/well Tb-anti-GST (20 nM) alone was then dispensed to selected wells with a Multidrop Combi Reagent Dispenser. The final assay volume was 20 µl/well. The final DMSO concentration was 0.25% (v/v) (0.1% (v/v) from the FAM-PCF11_4 DMSO stock solution and 0.15% (v/v) from the compound-DMSO solution or the DMSO for the control wells). The final tested compound concentration was 15 µM. The final FAM-PCF11_4 concentration was 200 nM and the final Tb-anti-GST concentration was 5 nM. The final GST-MAGE-A11 concentration was 5 nM except for those selected positive control wells in which GST-MAGE-A11 was not presented. The plates were then shaken with a big bear shaker (Big Bear Automation, Santa Clara, California) and spun down with the Velocity11 VSpin microplate centrifuge for 20 s. The plates were then incubated at room temperature in a Liconic incubator (Liconic US, Woburn, MA) for 90 min. The TR-FRET signals for individual wells were measured with a PHERAstar FS plate reader. The %Inhibition of each tested inhibitor was calculated by using Eq. 1.
row,SMILES,IC50
1,COc1cccc(Oc2ccc3c(NCCCNCc4cc(F)ccc4OC)ccnc3c2)c1 [SJ000311217-1],36.8 µM
2,COc1cccc(CNCCCNc2ccnc3cc(C4CCCCC4)ccc23)c1O [SJ000311263-1],32.4 µM
3,COc1ccc(F)cc1CNCCCNc1ccnc2cc(-c3cccc4ccccc34)ccc12 [SJ000311277-1],10.3 µM
4,COc1ccc(F)cc1CNCCCNc1ccnc2cc(CCc3ccccc3)ccc12 [SJ000311256-1],37.1 µM
5,COc1ccc(F)cc1CNCCCNc1ccnc2cc(-c3cc(C(F)(F)F)cc(C(F)(F)F)c3)ccc12 [SJ000311273-1],7.69 µM
6,c1cc(CNCCCNc2ccnc3cc(-c4ccc5c(c4)OCO5)ccc23)c2c(c1)OCO2 [SJ000311292-1],30.5 µM
7,FC(F)(F)c1ccc(-c2ccc3c(NCCCNCc4cccc5c4OCO5)ccnc3c2)cc1 [SJ000311280-1],15.7 µM
8,Cc1ccccc1NC1=C(N)C(=O)c2ccccc2C1=O [SJ000562551-1],> 70 µM
9,COc1ccc(F)cc1CNCCCNc1ccnc2cc(Cc3ccc(F)cc3)ccc12 [SJ000311245-1],35.1 µM
10,c1cc(CNCCCNc2ccnc3cc(-c4cccc5ccccc45)ccc23)c2c(c1)OCO2 [SJ000311276-1],31.2 µM
11,COc1cccc(-c2nc(S(=O)(=O)c3ccc(Cl)cc3)c(N3CCOCC3)o2)c1 [SJ000038124-1],7.43 µM
12,COc1cccc(CNCCCNc2ccnc3cc(CC(C)C)ccc23)c1O [SJ000311259-1],68.5 µM
13,COc1ccc(F)cc1CNCCCNc1ccnc2cc(-c3ccc(C(F)(F)F)cc3)ccc12 [SJ000311281-1],13.4 µM
14,Clc1cccc(Cl)c1Cc1ccc2c(NCCCNCc3cccc4c3OCO4)ccnc2c1 [SJ000311316-1],11 µM
15,COc1ccc(F)cc1CNCCCNc1ccnc2cc(C3CCCCC3)ccc12 [SJ000311265-1],24.2 µM
16,Cn1c(=O)c2[nH]c(-c3ccc(S(=O)(=O)O)cc3)nc2n(C)c1=O [SJ000287642-4],21.8 µM
17,COc1cc2nc(N(C)CCCNC(=O)C3CCCO3)nc(N)c2cc1OC (stereo not drawn) [SJ000286094-9],36.2 µM

row,SMILES,IC50
1,COc1cccc(CNCCCNc2ccnc3cc(Cc4cc(C)cc(C)c4)ccc23)c1O [SJ000311319-1],23.6 µM
2,O=C1C(Cl)=C(NC(=O)C(F)(F)F)C(=O)c2ccccc21 [SJ000024928-1],9.87 µM
3,O=S(=O)(c1ccc(Cl)cc1)c1nc(-c2cccc(Br)c2)oc1N1CCOCC1 [SJ000027481-1],9.2 µM
4,c1ccc(Cc2ccc3c(NCCCNCc4cccc5c4OCO5)ccnc3c2)cc1 [SJ000311308-1],46.1 µM
5,Cc1ccc(S(=O)(=O)c2nc(-c3ccc(F)cc3)oc2N2CCOCC2)cc1 [SJ000230854-1],11.7 µM
6,Cc1ccc(S(=O)(=O)N2CCN(C3=C(Cl)C(=O)c4ccccc4C3=O)CC2)cc1 [SJ000021282-1],10.4 µM
7,COc1cccc(CNCCCNc2ccnc3cc(-c4ccccc4)ccc23)c1O [SJ000311283-1],24.1 µM
8,Cc1ccc(NC2=C(N)C(=O)c3ccccc3C2=O)cc1 [SJ000562618-1],60.6 µM
9,COc1ccc(F)cc1CNCCCNc1ccnc2cc(Cc3cccc(C(F)(F)F)c3)ccc12 [SJ000311301-2],22.1 µM
10,COc1ccc(Oc2ccc3c(NCCCNCc4cccc(OC)c4O)ccnc3c2)cc1 [SJ000311219-1],29 µM
11,COc1cc(NCc2ccc3nc(N)nc(N)c3c2C)cc(OC)c1OC [SJ000574313-7],9.46 µM
12,c1cc(CNCCCNc2ccnc3cc(C4CCCCC4)ccc23)c2c(c1)OCO2 [SJ000311264-1],23.7 µM
13,CCCCCn1c(-c2ccc(F)c(Br)c2)nc2c1c(=O)[nH]c(=O)n2CCCC [SJ000378900-1],2.64 µM
14,COc1cc(Cc2ccc3c(NCCCNCc4cccc(OC)c4O)ccnc3c2)cc(OC)c1 [SJ000311311-1],33.6 µM
15,Clc1ccc(Oc2ccc3c(NCCCNCc4cccc5c4OCO5)ccnc3c2)cc1 [SJ000311228-1],17.7 µM
16,COc1ccc(F)cc1CNCCCNc1ccnc2cc(-c3ccc(F)cc3)ccc12 [SJ000311241-1],38.9 µM

# Same assay, conditions: Supplementary Data 3, 59 quinoline compounds; read-out: TR-FRET IC50
row,SMILES,IC50
1,"CCCN(CCCNc1ccnc2cc(Cl)ccc12)Cc1ccc2[nH]ccc2c1 [SJ000522746-2, CCCN(CCCNc1ccnc2cc(Cl)ccc12)Cc3ccc4[nH]ccc4c3]",2.8 µM
2,"Clc1ccc2c(NCCCNCc3csc4ccccc34)ccnc2c1 [SJ000521033-1, Clc1ccc2c(NCCCNCc3csc4ccccc34)ccnc2c1]",> 70 µM
3,"CCCN(CCCNc1ccnc2cc(C(F)(F)F)ccc12)CC(CC)CC [SJ000361269-1, CCCN(CCCNc1ccnc2cc(ccc12)C(F)(F)F)CC(CC)CC]",> 70 µM
4,"Cc1cc(C)c(CN(CCCNc2ccnc3cc(Cl)ccc23)Cc2ccccc2)c(C)c1 [SJ000361169-2, Cc1cc(C)c(CN(CCCNc2ccnc3cc(Cl)ccc23)Cc4ccccc4)c(C)c1]",> 70 µM
5,"CCCN(CCCNc1ccnc2cc(C(F)(F)F)ccc12)Cc1ccccc1OC [SJ000523072-1, CCCN(CCCNc1ccnc2cc(ccc12)C(F)(F)F)Cc3ccccc3OC]",> 70 µM
6,"CCCN(CCCNc1ccnc2cc(C(F)(F)F)ccc12)Cc1ccc[nH]1 [SJ000361255-1, CCCN(CCCNc1ccnc2cc(ccc12)C(F)(F)F)Cc3ccc[nH]3]",> 70 µM
7,"Oc1c(F)cc(F)cc1CN(CCCCNc1ccnc2cc(Cl)ccc12)Cc1ccccc1 [SJ000357506-2, Oc1c(F)cc(F)cc1CN(CCCCNc2ccnc3cc(Cl)ccc23)Cc4ccccc4]",> 70 µM
8,"CC(C)(C)CCN(CCCCNc1ccnc2cc(Cl)ccc12)Cc1ccccc1 [SJ000357537-2, CC(C)(C)CCN(CCCCNc1ccnc2cc(Cl)ccc12)Cc3ccccc3]",> 70 µM
9,"c1ccc(Cc2ccc3c(NCCCNCc4ccco4)ccnc3c2)cc1 [SJ000311306-2, C(CNCc1occc1)CNc2ccnc3cc(Cc4ccccc4)ccc23]",32.2 µM
10,"Clc1ccc2c(NCCCN(Cc3ccccc3)Cc3c[nH]c4ccccc34)ccnc2c1 [SJ000520433-1, Clc1ccc2c(NCCCN(Cc3ccccc3)Cc4c[nH]c5ccccc45)ccnc2c1]",> 70 µM
11,"FC(F)(F)Oc1ccc(CN(CCCCNc2ccnc3cc(Cl)ccc23)Cc2ccccc2)cc1 [SJ000520451-1, FC(F)(F)Oc1ccc(CN(CCCCNc2ccnc3cc(Cl)ccc23)Cc4ccccc4)cc1]",> 70 µM
12,"CCCCCN(CCC)CCCNc1ccnc2cc(C(F)(F)F)ccc12 [SJ000361271-1, CCCCCN(CCC)CCCNc1ccnc2cc(ccc12)C(F)(F)F]",> 70 µM
13,"FC(F)(F)Oc1cccc(CN(CCCCNc2ccnc3cc(Cl)ccc23)Cc2ccccc2)c1 [SJ000520457-1, FC(F)(F)Oc1cccc(CN(CCCCNc2ccnc3cc(Cl)ccc23)Cc4ccccc4)c1]",> 70 µM

# Same assay, conditions: Supplementary Data 4; read-out: TR-FRET, IC50
row,SMILES,IC50
1,FC(F)(F)c1ccc(-c2ccc3c(NCCCNCc4cccc5c4OCO5)ccnc3c2)cc1 [SJ000311280-01],4.07 µM
2,COc1ccc(F)cc1CNCCCNc1ccnc2cc(-c3ccc(C(F)(F)F)cc3)ccc12 [SJ000311281-01],5.58 µM
